Data reported in the NIST ThermoML archive (doi:10.1016/j.fluid.2008.03.012).

Test: excess molar enthalpy (molar enthalpy of mixing); xn = mol fraction of the nth substance listed
Conditions: Liquid, Flow calorimetry

CCOC(=O)CC(C)=O [ethyl 3-oxobutanoate] + CC(C)O
excess molar enthalpy [kcal/mol]
Conditions | 298.15 K | 313.15 K | 328.15 K
100 kPa, x1 = 0.0997 | 0.236 | 0.266 | 0.283
100 kPa, x1 = 0.1998 | 0.369 | 0.422 | 0.454
100 kPa, x1 = 0.2999 | 0.446 | 0.518 | 0.556
100 kPa, x1 = 0.3499 | 0.472 | 0.547 | 0.586
100 kPa, x1 = 0.4003 | 0.488 | 0.565 | 0.605
100 kPa, x1 = 0.4496 | 0.496 | 0.574 | 0.612
100 kPa, x1 = 0.5003 | 0.498 | 0.573 | 0.61
100 kPa, x1 = 0.5494 | 0.491 | 0.562 | 0.597
100 kPa, x1 = 0.5995 | 0.476 | 0.543 | 0.573
100 kPa, x1 = 0.6505 | 0.452 | 0.513 | 0.538
100 kPa, x1 = 0.7008 | 0.42 | 0.473 | 0.494
100 kPa, x1 = 0.7999 | 0.328 | 0.359 | 0.373
100 kPa, x1 = 0.9006 | 0.185 | 0.198 | 0.203
10000 kPa, x1 = 0.0994 | 0.231 | 0.26 | 0.276
10000 kPa, x1 = 0.1993 | 0.358 | 0.409 | 0.447
10000 kPa, x1 = 0.2992 | 0.435 | 0.498 | 0.548
10000 kPa, x1 = 0.3491 | 0.459 | 0.527 | 0.578
10000 kPa, x1 = 0.3995 | 0.477 | 0.544 | 0.597
10000 kPa, x1 = 0.4488 | 0.485 | 0.553 | 0.604
10000 kPa, x1 = 0.4995 | 0.487 | 0.551 | 0.602
10000 kPa, x1 = 0.5486 | 0.482 | 0.541 | 0.59
10000 kPa, x1 = 0.5987 | 0.468 | 0.522 | 0.566
10000 kPa, x1 = 0.6497 | 0.447 | 0.491 | 0.532
10000 kPa, x1 = 0.7001 | 0.417 | 0.452 | 0.487
10000 kPa, x1 = 0.7994 | 0.326 | 0.342 | 0.367
10000 kPa, x1 = 0.9003 | 0.184 | 0.187 | 0.199

CCOC(=O)CC(C)=O [ethyl 3-oxobutanoate] + CCCO
excess molar enthalpy [kcal/mol]
Conditions | 298.15 K | 313.15 K | 328.15 K
100 kPa, x1 = 0.1001 | 0.208 | 0.237 | 0.256
100 kPa, x1 = 0.1998 | 0.324 | 0.378 | 0.414
100 kPa, x1 = 0.3003 | 0.396 | 0.464 | 0.509
100 kPa, x1 = 0.3502 | 0.42 | 0.493 | 0.539
100 kPa, x1 = 0.3994 | 0.436 | 0.512 | 0.558
100 kPa, x1 = 0.4501 | 0.446 | 0.522 | 0.565
100 kPa, x1 = 0.4997 | 0.45 | 0.524 | 0.564
100 kPa, x1 = 0.5505 | 0.446 | 0.517 | 0.553
100 kPa, x1 = 0.5997 | 0.435 | 0.501 | 0.532
100 kPa, x1 = 0.6497 | 0.417 | 0.475 | 0.504
100 kPa, x1 = 0.7007 | 0.39 | 0.441 | 0.462
100 kPa, x1 = 0.7996 | 0.307 | 0.341 | 0.351
100 kPa, x1 = 0.9004 | 0.175 | 0.187 | 0.193
10000 kPa, x1 = 0.1003 | 0.204 | 0.229 | 0.254
10000 kPa, x1 = 0.2001 | 0.318 | 0.364 | 0.407
10000 kPa, x1 = 0.3007 | 0.389 | 0.45 | 0.503
10000 kPa, x1 = 0.3506 | 0.412 | 0.474 | 0.533
10000 kPa, x1 = 0.3998 | 0.427 | 0.492 | 0.552
10000 kPa, x1 = 0.4505 | 0.436 | 0.502 | 0.563
10000 kPa, x1 = 0.5001 | 0.439 | 0.503 | 0.563
10000 kPa, x1 = 0.5509 | 0.435 | 0.498 | 0.552
10000 kPa, x1 = 0.6 | 0.425 | 0.483 | 0.53
10000 kPa, x1 = 0.6501 | 0.407 | 0.457 | 0.502
10000 kPa, x1 = 0.701 | 0.38 | 0.421 | 0.461
10000 kPa, x1 = 0.7999 | 0.3 | 0.322 | 0.35
10000 kPa, x1 = 0.9005 | 0.17 | 0.179 | 0.19

CCOC(=O)CC(C)=O [ethyl 3-oxobutanoate] + CCO
excess molar enthalpy [kcal/mol]
Conditions | 298.15 K | 313.15 K | 328.15 K
100 kPa, x1 = 0.0999 | 0.178 | 0.202 | 0.217
100 kPa, x1 = 0.1997 | 0.286 | 0.326 | 0.359
100 kPa, x1 = 0.2994 | 0.357 | 0.403 | 0.445
100 kPa, x1 = 0.3495 | 0.38 | 0.43 | 0.473
100 kPa, x1 = 0.3999 | 0.396 | 0.448 | 0.493
100 kPa, x1 = 0.4501 | 0.406 | 0.457 | 0.502
100 kPa, x1 = 0.4995 | 0.408 | 0.459 | 0.502
100 kPa, x1 = 0.5492 | 0.405 | 0.455 | 0.494
100 kPa, x1 = 0.6008 | 0.395 | 0.439 | 0.476
100 kPa, x1 = 0.6501 | 0.377 | 0.418 | 0.45
100 kPa, x1 = 0.7008 | 0.353 | 0.388 | 0.415
100 kPa, x1 = 0.8006 | 0.275 | 0.296 | 0.313
100 kPa, x1 = 0.9002 | 0.157 | 0.168 | 0.17
10000 kPa, x1 = 0.0998 | 0.173 | 0.202 | 0.215
10000 kPa, x1 = 0.1995 | 0.281 | 0.325 | 0.351
10000 kPa, x1 = 0.2992 | 0.349 | 0.402 | 0.436
10000 kPa, x1 = 0.3493 | 0.371 | 0.429 | 0.463
10000 kPa, x1 = 0.3996 | 0.387 | 0.447 | 0.481
10000 kPa, x1 = 0.4498 | 0.396 | 0.455 | 0.489
10000 kPa, x1 = 0.4992 | 0.399 | 0.458 | 0.489
10000 kPa, x1 = 0.5489 | 0.396 | 0.453 | 0.481
10000 kPa, x1 = 0.6005 | 0.385 | 0.438 | 0.464
10000 kPa, x1 = 0.6499 | 0.368 | 0.417 | 0.437
10000 kPa, x1 = 0.7005 | 0.343 | 0.387 | 0.403
10000 kPa, x1 = 0.8004 | 0.268 | 0.295 | 0.302
10000 kPa, x1 = 0.9001 | 0.15 | 0.167 | 0.168

CCOC(=O)CC(C)=O [ethyl 3-oxobutanoate] + CO
excess molar enthalpy [kcal/mol]
Conditions | 298.15 K | 313.15 K | 328.15 K
100 kPa, x1 = 0.0998 | 0.12 | 0.135 | 0.146
100 kPa, x1 = 0.2002 | 0.202 | 0.227 | 0.244
100 kPa, x1 = 0.2994 | 0.256 | 0.285 | 0.309
100 kPa, x1 = 0.3505 | 0.274 | 0.305 | 0.332
100 kPa, x1 = 0.3995 | 0.287 | 0.318 | 0.346
100 kPa, x1 = 0.4495 | 0.295 | 0.326 | 0.354
100 kPa, x1 = 0.4998 | 0.298 | 0.33 | 0.357
100 kPa, x1 = 0.5495 | 0.296 | 0.326 | 0.352
100 kPa, x1 = 0.5997 | 0.288 | 0.318 | 0.341
100 kPa, x1 = 0.65 | 0.275 | 0.304 | 0.323
100 kPa, x1 = 0.6995 | 0.257 | 0.279 | 0.299
100 kPa, x1 = 0.7994 | 0.199 | 0.211 | 0.224
100 kPa, x1 = 0.8982 | 0.111 | 0.115 | 0.12
10000 kPa, x1 = 0.0996 | 0.116 | 0.133 | 0.145
10000 kPa, x1 = 0.1999 | 0.197 | 0.225 | 0.244
10000 kPa, x1 = 0.299 | 0.248 | 0.283 | 0.309
10000 kPa, x1 = 0.35 | 0.265 | 0.303 | 0.331
10000 kPa, x1 = 0.399 | 0.276 | 0.317 | 0.346
10000 kPa, x1 = 0.449 | 0.283 | 0.325 | 0.354
10000 kPa, x1 = 0.4993 | 0.286 | 0.329 | 0.356
10000 kPa, x1 = 0.5489 | 0.283 | 0.324 | 0.352
10000 kPa, x1 = 0.5992 | 0.274 | 0.317 | 0.341
10000 kPa, x1 = 0.6495 | 0.261 | 0.301 | 0.322
10000 kPa, x1 = 0.699 | 0.242 | 0.273 | 0.297
10000 kPa, x1 = 0.799 | 0.182 | 0.209 | 0.222
10000 kPa, x1 = 0.898 | 0.0986 | 0.113 | 0.118
